Experimental data taken from ChEMBL document CHEMBL3414475, “Design, synthesis, and structure-activity relationship of novel LSD1 inhibitors based on pyrimidine-thiourea hybrids as potent, orally active antitumor agents” (J Med Chem, 2015).
pIC50: −log10 of the molar value. Values belong to the molecule of their own block, whether it stands above or below them. Calls of active or inactive are those of the source. The rule behind the calls is not given here.

Experiments:
[1] = biological target: Lysine-specific histone demethylase 1A (Homo sapiens, UniProt O60341)
Description: Inhibition of recombinant LSD1 (157 to 852) (unknown origin) transfected in Escherichia coli BL21(DE) by fluorescence assay

MGC-803 [2] = test: Antimigratory activity against human MGC803 cells at >5 uM after 48 hrs by transwell assay; format: functional, cell-based
Mus musculus [3] = test: Toxicity in nude BALB/C mouse xenografted with human MGC803 cells assessed as weight loss at 50 to 100 mg/kg, po; format: organism-based, MGC-803; parameters: dose 50-100 mg/kg, route oral; settings: in vivo
MGC-803 [4] = test: Induction of apoptosis in human MGC803 cells assessed as down regulation of Bcl2 expression after 48 hrs by Western blotting analysis; format: functional, cell-based
Mus musculus [5] = test: Upregulation of Bax expression in nude BALB/C mouse xenografted with human MGC803 cells at 50 to 100 mg/kg, po administered for 21 days; format: functional, organism-based; settings: MGC-803
[6] = Induction of apoptosis in human MGC803 cells assessed as upregulation of Bax expression after 48 hrs by Western blotting analysis; format: functional, cell-based; settings: MGC-803
MGC-803 [7] = test: Antiinvasive activity against human MGC803 cells at 1.25 to 5 uM after 48 hrs by wound healing assay; format: functional, cell-based
[8] = biological target: T1, Amine oxidase [flavin-containing] B (Homo sapiens, UniProt P27338)
T1 sequence (P27338 whole entry): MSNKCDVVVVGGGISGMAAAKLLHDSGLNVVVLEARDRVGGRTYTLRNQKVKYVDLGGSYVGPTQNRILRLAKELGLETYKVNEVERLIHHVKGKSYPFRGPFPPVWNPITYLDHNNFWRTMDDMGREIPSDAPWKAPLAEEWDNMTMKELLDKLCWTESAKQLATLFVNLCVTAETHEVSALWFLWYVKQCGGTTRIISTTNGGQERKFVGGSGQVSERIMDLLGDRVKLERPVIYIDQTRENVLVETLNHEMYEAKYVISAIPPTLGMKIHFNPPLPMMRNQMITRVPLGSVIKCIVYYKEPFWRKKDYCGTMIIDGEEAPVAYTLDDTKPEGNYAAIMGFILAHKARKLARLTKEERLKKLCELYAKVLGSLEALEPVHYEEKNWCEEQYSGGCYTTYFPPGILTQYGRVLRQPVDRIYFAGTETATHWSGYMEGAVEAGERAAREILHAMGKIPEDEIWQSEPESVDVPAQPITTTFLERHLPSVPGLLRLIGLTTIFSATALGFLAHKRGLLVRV
Description: Inhibition of MAOB (unknown origin)

[9] = biological target: T2, Amine oxidase [flavin-containing] A (Homo sapiens, UniProt P21397)
T2 sequence (P21397 whole entry): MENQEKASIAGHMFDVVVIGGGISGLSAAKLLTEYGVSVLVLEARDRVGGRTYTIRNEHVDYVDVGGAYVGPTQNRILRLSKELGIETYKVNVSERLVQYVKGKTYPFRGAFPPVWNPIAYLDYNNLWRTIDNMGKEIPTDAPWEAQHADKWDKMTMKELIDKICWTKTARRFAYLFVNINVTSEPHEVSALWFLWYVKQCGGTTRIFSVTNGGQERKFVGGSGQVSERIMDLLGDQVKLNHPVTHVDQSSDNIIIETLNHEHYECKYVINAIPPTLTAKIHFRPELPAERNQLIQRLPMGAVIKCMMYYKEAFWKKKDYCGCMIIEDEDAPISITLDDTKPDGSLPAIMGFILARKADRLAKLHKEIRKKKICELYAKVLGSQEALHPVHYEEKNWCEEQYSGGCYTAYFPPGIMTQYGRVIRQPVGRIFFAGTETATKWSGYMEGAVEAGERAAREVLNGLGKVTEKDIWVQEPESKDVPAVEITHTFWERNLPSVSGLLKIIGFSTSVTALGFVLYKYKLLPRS
Description: Inhibition of MAOA (unknown origin)

cells [10] = settings: Homo sapiens, SGC-7901, 72 h
Description: Cytotoxicity against human SGC7901 cells after 72 hrs by MTT assay

MGC-803 [11] = test: animal or person; settings: Mus musculus, MGC-803, po, 504 h, read-out: TGI
Description: Antitumor activity against human MGC803 cells xenografted in nude BALB/C mouse assessed as reduction of tumor weight at 100 mg/kg, po administered for 21 days relative to vehicle-treated control

[12] = Antimetastatic activity in mouse B16F10 cells […] in C57BL/6 mouse assessed as lung metastatic nodule at 100 mg/kg, po administered for 14 days (reference value: 26.6 +/- 8.7); format: functional, B16-F10
MGC-803 [13] = settings: Homo sapiens, 1.25 to 5 uM
Description: Inhibition of epithelial-mesenchymal transition in human MGC803 cells assessed as down regulation of N-Cadherin at 1.25 to 5 uM after 48 hrs by Western blotting analysis

MGC-803 [14] = test: cells; settings: Homo sapiens, MGC-803, 72 h
Description: Cytotoxicity against human MGC803 cells after 72 hrs by MTT assay

cells [15] = settings: Homo sapiens, HGC-27, 72 h
Description: Cytotoxicity against human HGC27 cells after 72 hrs by MTT assay

MGC-803 [16] = test: Induction of apoptosis in human MGC803 cells assessed as crescent nuclei at 2 to 8 uM after 24 hrs by Hoechst 33258 staining-based fluorescence microscopy; format: functional, cell-based
MGC-803 [17] = test: Induction of apoptosis in human MGC803 cells assessed as formation of apoptotic bodies after 48 hrs by annexinV-FITC/propidium iodide staining-based flow cytometry; format: functional, cell-based
MGC-803 [18] = test: Induction of apoptosis in human MGC803 cells assessed as chromatin shrinkage at 2 to 8 uM after 24 hrs by Hoechst 33258 staining-based fluorescence microscopy; format: functional, cell-based
Mus musculus [19] = test: Downregulation of Bcl2 expression in nude BALB/C mouse xenografted with human MGC803 cells at 50 to 100 mg/kg, po administered for 21 days; format: functional, organism-based; settings: MGC-803
MGC-803 [20] = test: Antiinvasive activity against human MGC803 cells at >5 uM after 48 hrs by matrigel-coated transwell assay; format: functional, cell-based
MGC-803 [21] = test: animal or person; settings: Mus musculus, MGC-803, po, 504 h, read-out: TGI; remark: listed apart in the source
Description: Antitumor activity against human MGC803 cells xenografted in nude BALB/C mouse assessed as reduction of tumor weight at 50 mg/kg, po administered for 21 days relative to vehicle-treated control

MGC-803 [22] = test: Induction of apoptosis in human MGC803 cells assessed as formation of apoptotic bodies at 2 to 8 uM after 24 hrs by Hoechst 33258 staining-based fluorescence microscopy; format: functional, cell-based
cells [23] = settings: Homo sapiens, GES1, 72 h
Description: Cytotoxicity against human GES-1 cells after 72 hrs by MTT assay

[24] = Antimetastatic activity in mouse B16F10 cells […] in C57BL/6 mouse assessed as lung metastatic nodule at 50 mg/kg, po administered for 14 days (reference value: 26.6 +/- 8.7); format: functional, B16-F10

- pIC50 [1]: < 3.90
SMILES: C#CCSc1nc(Nc2cccc(Cl)c2)c(C#N)c(-c2ccccc2)n1

- pIC50 [1]: < 3.90
SMILES: C#CCSc1nc(Cl)c(C#N)c(-c2ccc([N+](=O)[O-])cc2)n1

- pIC50 [1]: < 3.90
SMILES: C#CCSc1nc(Nc2cccc(C(F)(F)F)c2)c(C#N)c(-c2cc(OC)c(OC)c(OC)c2)n1

- pIC50 [1]: < 3.90
SMILES: C#CCSc1nc(Nc2ccc(OC)cc2)c(C#N)c(-c2ccc(Cl)cc2)n1

- pIC50 [1]: < 3.90
SMILES: N#Cc1c(Cl)nc(SCc2cn(Cc3ccccc3Cl)nn2)nc1-c1ccc(Cl)cc1

- pIC50 [1]: < 3.90
SMILES: C#CCSc1nc(Nc2ccc(Cl)cc2)c(C#N)c(-c2ccccc2)n1

- pIC50 [1]: < 3.90
SMILES: COc1cc(-c2nc(SCc3ccc(F)cc3)nc(NNC(N)=S)c2C#N)cc(OC)c1OC

- pIC50 [1]: < 3.90
SMILES: C#CCSc1nc(Nc2ccccc2Cl)c(C#N)c(-c2ccccc2)n1

- pIC50 [1]: < 3.90
SMILES: C#CCSc1nc(Nc2ccc(Cl)cc2)c(C#N)c(-c2ccc(Br)cc2)n1

- pIC50 [1]: < 3.90
SMILES: C#CCSc1nc(Nc2cccc(C(F)(F)F)c2)c(C#N)c(-c2ccccc2)n1

- pIC50 [1]: < 3.90
SMILES: C#CCSc1nc(Nc2ccc(C)cc2)c(C#N)c(-c2ccccc2)n1

- pIC50 [1]: < 3.90
SMILES: C#CCSc1nc(Nc2cccc(C(F)(F)F)c2)c(C#N)c(-c2ccc(Cl)cc2)n1

- pIC50 [1]: < 3.90
SMILES: C#CCSc1nc(Nc2ccc(OC)cc2)c(C#N)c(-c2ccccc2)n1

- pIC50 [1]: < 3.90
SMILES: C#CCSc1nc(Cl)c(C#N)c(-c2cccc(Cl)c2)n1

- pIC50 [1]: < 3.90
SMILES: C#CCSc1nc(Nc2ccc(OC)cc2)c(C#N)c(-c2cc(OC)c(OC)c(OC)c2)n1

- pIC50 [1]: < 3.90
SMILES: C#CCSc1nc(NNC(=N)N)c(C#N)c(-c2ccc([N+](=O)[O-])cc2)n1

- pIC50 [1]: < 3.90
SMILES: C#CCSc1nc(Nc2ccc([N+](=O)[O-])cc2)c(C#N)c(-c2ccccc2)n1

- pIC50 [1]: < 3.90
SMILES: C#CCSc1nc(Nc2ccc(F)cc2)c(C#N)c(-c2ccccc2)n1

- pIC50 [8]: < 2.90
- pIC50 [9]: < 2.90
- pIC50 (cells [10]): 4.17
- pIC50 (MGC-803 [14]): 5.40
- pIC50 (cells [15]): 5.05
- pIC50 (cells [23]): 4.23
SMILES: C#CCSc1nc(NNC(N)=S)c(C#N)c(-c2cc(OC)c(OC)c(OC)c2)n1
- Activity (MGC-803 [2]): Active
- Activity (Mus musculus [3]): Non-toxic
- Activity (MGC-803 [4]): Dose-dependent effect
- Activity (Mus musculus [5]): Active
- Activity [6]: Dose-dependent effect
- Activity (MGC-803 [7]): Active
- inhibition in vivo at 100 mg/kg (MGC-803 [11]): 72.1%
- Activity [12]: 8.4
- inhibition (MGC-803 [13]): Active
- Activity (MGC-803 [16]): Active
- Activity (MGC-803 [17]): Dose-dependent effect
- Activity (MGC-803 [18]): Active
- Activity (Mus musculus [19]): Active
- Activity (MGC-803 [20]): Active
- inhibition in vivo at 50 mg/kg (MGC-803 [21]): 55.1%
- Activity (MGC-803 [22]): Active
- Activity [24]: 12.1
